Experimental data as given in BindingDB's records for patent US12479845 (Hanmi Pharm. Co., 2025).

Target: Lysine-specific histone demethylase 1A (Homo sapiens, UniProt O60341)
Assay: Biochemical Analysis of LSD1 Histone Demethylase Inhibitor
Protocol: The biochemical inhibition activity of the synthesized compounds on LSD1 was measured. The activity measurement was performed using LSD1 fluorescence analysis kit (available from BPS Bioscience Co., Ltd., Catalog No: 50106). This analysis kit is designed to measure activity of LSD1 enzyme. H2O2 generated upon demethylation of Lys4 moiety of histone H3 by LSD1 is reacted with HRP/Amplex Red reagent to form fluorescent Resorufin, which is measured by this kit, thereby confirming demethylation.

IC50: 0.027 µM
SMILES: CCN(CC)c1ccc(-n2c(-c3ccc(C#N)c(F)c3)nc3c(N4CCC[C@@H](N)C4)ccnc32)cc1 [US12479845, Example 21]
